Experimental data from US5686104A, “Stable oral CI-981 formulation and process of preparing same” (Warner-Lambert Company, priority 1994, dated 1997).
Structures can show the parent of a compound that is named as a salt.

Tests used:
[1] = system: sterol synthesis (rat liver homogenate); conditions: read-out: IC50, concentration required for 50% inhibition of sterol synthesis, one-hour period, data disclosed in U.S. Pat. No. 5,273,995; cited from earlier work
[2] = Stability of the hydroxy acid compounds in acidic environment, under light, or in wet-granulated compositions (statement); format: physicochemical; conditions: no calcium carbonate

degradation in compositions prepared by the wet-granulation method [2] | Compound | IC50 [1]
 | CC(C)c1c(C(=O)Nc2ccccc2)c(-c2ccccc2)c(-c2ccc(F)cc2)n1CC[C@@H](O)C[C@@H](O)CC(=O)O (relative stereo) [Racemate] | 45 nM
 | CC(C)c1c(C(=O)Nc2ccccc2)c(-c2ccccc2)c(-c2ccc(F)cc2)n1CC[C@H](O)C[C@H](O)CC(=O)O [[S-(R*R*)] isomer] | 440 nM
degrades rapidly | CC(C)c1c(C(=O)Nc2ccccc2)c(-c2ccccc2)c(-c2ccc(F)cc2)n1CC[C@@H](O)C[C@@H](O)CC(=O)O [CI-981 Hemi-Calcium, [R-(R*,R*)]-2-(4-fluorophenyl)-β,δ-dihydroxy-5-(1-methylethyl)-3-phenyl-4-[(phenylamino)carbonyl]-1H-pyrrole-1-heptanoic acid hemicalcium salt] | 4.4 nM
